Source: the supplement of paper PMC11699113

Test system: ED cells (E. derm NBM-6, ATCC CCL-57)
Assay: cell viability (ATP, CellTiter-Glo) relative to untreated control (fraction of control); higher = less cytotoxic

CC(C)(C)NC(=O)[C@@H]1C[C@@H]2CCCC[C@@H]2CN1C[C@@H](O)[C@H](Cc1ccccc1)NC(=O)[C@H](CC(N)=O)NC(=O)c1ccc2ccccc2n1 [saquinavir]
cell viability
Conditions | 0.25 µM | 0.5 µM | 2 µM | 5 µM | 10 µM | 20 µM | 25 µM | 30 µM | 50 µM | 65 µM
incubation time: 1h | 1.03 | 1.04 | 1.03 | 1.04 | 1.03 | 1 | 1.01 | 1.02 | 0.958 | 0.868
incubation time: 24h | 0.995 | 1.01 | 1 | 0.992 | 0.955 | 0.896 | 0.872 | 0.868 | 0.75 | 0.583
incubation time: 72h | 1.04 | 1.03 | 1.01 | 0.956 | 0.904 | 0.798 | 0.753 | 0.687 | 0.306 | 0.0705
incubation time: 144h | 1.02 | 1.02 | 1 | 0.951 | 0.922 | 0.808 | 0.743 | 0.699 | 0.201 | 0.0214

CC[C@H](C)[C@H](NC(=O)[C@H](CC(C)C)NC(=O)[C@H](CO)NC(=O)[C@H](Cc1cnc[nH]1)NC(=O)[C@@H](NC(=O)[C@H](CC(C)C)NC(=O)[C@H](CO)NC(=O)[C@@H](NC(=O)[C@H](Cc1ccc(O)cc1)NC(C)=O)[C@@H](C)O)[C@@H](C)CC)C(=O)N[C@@H](CCC(=O)O)C(=O)N[C@@H](CCC(=O)O)C(=O)N[C@@H](CO)C(=O)N[C@@H](CCC(N)=O)C(=O)N[C@@H](CC(N)=O)C(=O)N[C@@H](CCC(N)=O)C(=O)N[C@@H](CCC(N)=O)C(=O)N[C@@H](CCC(=O)O)C(=O)N[C@@H](CCCCN)C(=O)N[C@@H](CC(N)=O)C(=O)N[C@@H](CCC(=O)O)C(=O)N[C@@H](CCC(N)=O)C(=O)N[C@@H](CCC(=O)O)C(=O)N[C@@H](CC(C)C)C(=O)N[C@@H](CC(C)C)C(=O)N[C@@H](CCC(=O)O)C(=O)N[C@@H](CC(C)C)C(=O)N[C@@H](CC(=O)O)C(=O)N[C@@H](CCCCN)C(=O)N[C@@H](Cc1c[nH]c2ccccc12)C(=O)N[C@@H](C)C(=O)N[C@@H](CO)C(=O)N[C@@H](CC(C)C)C(=O)N[C@@H](Cc1c[nH]c2ccccc12)C(=O)N[C@@H](CC(N)=O)C(=O)N[C@@H](Cc1c[nH]c2ccccc12)C(=O)N[C@@H](Cc1ccccc1)C(N)=O [enfuvirtide]
cell viability
Conditions | 0.03 µM | 0.06 µM | 0.125 µM | 0.25 µM | 0.5 µM | 1 µM | 2 µM | 5 µM | 8 µM | 11 µM
incubation time: 1h | 1.05 | 1.06 | 1.06 | 1.07 | 1.05 | 1.05 | 1.05 | 1.05 | 1.06 | 1.06
incubation time: 24h | 1.06 | 1.07 | 1.06 | 1.07 | 1.06 | 1.06 | 1.06 | 1.07 | 1.05 | 1.04
incubation time: 72h | 1.05 | 1.06 | 1.06 | 1.08 | 1.06 | 1.06 | 1.07 | 1.06 | 1.05 | 1.06
incubation time: 144h | 1.02 | 1.03 | 1.03 | 1.04 | 1.03 | 1.03 | 1.04 | 1.04 | 1.06 | 1.04

Cc1nnc(C(=O)NC(C)(C)c2nc(C(=O)NCc3ccc(F)cc3)c(O)c(=O)n2C)o1 [raltegravir]
cell viability
Conditions | 0.5 µM | 2 µM | 5 µM | 10 µM | 25 µM | 50 µM | 80 µM | 100 µM | 200 µM | 300 µM
incubation time: 1h | 1.07 | 1.07 | 1.07 | 1.08 | 1.07 | 1.06 | 1.05 | 1.07 | 1.06 | 1.06
incubation time: 24h | 1.02 | 1.02 | 1.02 | 1.03 | 1.02 | 1.01 | 0.983 | 0.999 | 0.982 | 0.963
incubation time: 72h | 1.03 | 1.05 | 1.04 | 1.04 | 1.04 | 1.05 | 1.01 | 1.02 | 0.992 | 0.963
incubation time: 144h | 0.994 | 0.999 | 1.03 | 1.03 | 1.04 | 1.04 | 1.03 | 1.02 | 0.991 | 0.955
